Experimental data reported in EP1976513B1 (priority 2006, dated 2007).
Where a name gives a salt, the structure may show the parent alone. Read-outs that look alike come from different tables or passages of the source.

Experiments:
serotonin transporter = target: T1, serotonin transporter (Rattus norvegicus, UniProt P31652); test: biochemical
T1 construct: synaptosomes isolated in a 0.32M sucrose buffer from a male Wistar rat cortex; from tissue; host or cells: male Wistar rat cortex synaptosomes

dopamine transporter = target: T2, dopamine transporter (Rattus norvegicus, UniProt P23977); test: biochemical
T2 construct: synaptosomes isolated in a 0.32 M sucrose buffer from a male Wistar rat striatum; from tissue; host or cells: male Wistar rat striatum synaptosomes

[1] = target: T3, norepinephrine transporter (Rattus norvegicus, UniProt Q63380); test: biochemical; format: biochemical; details: rat synaptosomes, norepinephrine transporter (NET)
T3 construct: synaptosomes isolated in a 0.32 M sucrose buffer from a male Wistar rat hypothalamus; from tissue; host or cells: male Wistar rat hypothalamus synaptosomes

[2] = target: human serotonin reuptake transporter (Homo sapiens, UniProt P31645); test: cell-based; details: recombinant human serotonin transporter (SERT)
[3] = target: T4, human dopamine reuptake transporter (Homo sapiens, UniProt Q01959); test: cell-based; details: recombinant human dopamine transporter (DAT); read-out: Human IC50 (nM) hDAT
T4 construct: expressed in transfected cells; host or cells: CHO-K1 or HEK293

[4] = target: human norepinephrine reuptake transporter (Homo sapiens, UniProt P23975); test: cell-based; details: recombinant human norepinephrine transporter (NET); read-out: Human IC50 (nM) hNET
[5] = target: T5, 5-HT Transporter (SERT) Sites in Mouse Brain (Mus musculus, UniProt Q60857); test: Ex vivo [3H] citalopram binding after oral dosing; design: species or system C57BL/6 mice; details: for % Transporter Occupancy, SERT: 60 minutes after treatment, vs vehicle; for Mean Specific Binding (dpm) ± S.E.M., SERT: mice sacrificed 60 minutes after treatment, cortex
T5 construct: Whole brains were removed and cortex and striata dissected out; from tissue; host or cells: C57BL/6 mouse frontal cortex homogenate

[6] = target: T6, DA Transporter (DAT) Sites in Mouse Brain (Mus musculus, UniProt Q61327); test: Ex vivo [3H] WIN 35428 binding after oral dosing; design: species or system C57BL/6 mice; details: for % Transporter Occupancy, DAT: 60 minutes after treatment, vs vehicle; for Mean Specific Binding (dpm) ± S.E.M., DAT: mice sacrificed 60 minutes after treatment, striatum
T6 construct: Striatum was used to determine occupancy of DA transporter sites; from tissue; host or cells: C57BL/6 mouse striatum homogenate

mice = test: Mouse locomotor activity; format: in vivo; details: PO
Description: (§1) In order to ensure effects of the compounds on immobility time were not related to a general stimulant effect on baseline motor activity, locomotor activity was assessed using photocell monitored cages (Med-Associates Inc.). Each test chamber was equipped with infrared photocell beams to measure movement of the animals. Horizontal and vertical activity were measured
(§2) Rats or mice were pretreated with vehicle or test compounds and placed back in home cage, following which they will be individually placed in locomotor cages and activity was monitored in 5 minute intervals for up to 60 min.
(§3) Data were analyzed by one way analysis of variance (ANOVA) followed by post-hoc comparisons where appropriate. An effect was considered significant if p < 0.05. Data are represented as the mean and standard error to the mean (s.e.m).

Rats = test: Rat locomotor activity; format: in vivo; details: PO
Description: as §1, §2, §3

[7] = target: Norepinephrine Transporter (NET) Sites in Mouse Brain (Mus musculus, UniProt O55192); details: PO; for % Transporter Occupancy, NET: 60 minutes after treatment, vs vehicle; for Mean Specific Binding (dpm) ± S.E.M., NET: mice sacrificed 60 minutes after treatment, cortex
[8] = Rat IC50 (nM) rSERT, rat synaptosomes, serotonin transporter (SERT)
[9] = Rat IC50 (nM) rDAT, rat synaptosomes, dopamine transporter (DAT)
[10] = read-out: Rat IC50 (nM) rSERT; rat synaptosomes, serotonin transporter (SERT)
[11] = read-out: Rat IC50 (nM) rDAT; rat synaptosomes, dopamine transporter (DAT)
[12] = rat synaptosomes, serotonin transporter (SERT); read-out: Rat IC50 (nM) rSERT
[13] = rat synaptosomes, dopamine transporter (DAT); read-out: Rat IC50 (nM) rDAT
[14] = read-out: Human IC50 (nM) hSERT

T6 sequence (Q61327 whole entry): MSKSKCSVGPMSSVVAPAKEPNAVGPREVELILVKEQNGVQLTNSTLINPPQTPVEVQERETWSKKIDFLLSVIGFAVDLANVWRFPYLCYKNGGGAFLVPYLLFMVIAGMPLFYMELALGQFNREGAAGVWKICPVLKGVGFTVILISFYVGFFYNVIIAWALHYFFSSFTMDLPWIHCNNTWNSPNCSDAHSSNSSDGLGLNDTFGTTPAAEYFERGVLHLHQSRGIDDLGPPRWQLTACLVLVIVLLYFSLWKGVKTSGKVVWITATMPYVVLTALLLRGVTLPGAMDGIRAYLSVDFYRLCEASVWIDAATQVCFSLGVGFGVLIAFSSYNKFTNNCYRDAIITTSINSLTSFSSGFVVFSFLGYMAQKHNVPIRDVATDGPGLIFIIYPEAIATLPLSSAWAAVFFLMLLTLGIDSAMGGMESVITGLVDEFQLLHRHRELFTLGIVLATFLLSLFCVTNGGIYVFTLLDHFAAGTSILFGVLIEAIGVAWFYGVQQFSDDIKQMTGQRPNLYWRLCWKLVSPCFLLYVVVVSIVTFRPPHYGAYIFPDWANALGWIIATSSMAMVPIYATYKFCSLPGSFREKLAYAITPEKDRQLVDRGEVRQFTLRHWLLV
T2 sequence (P23977 whole entry): as the sequence (Q61327 whole entry) above, with P21S, V57A, S194A, R600H, V619L counted along it
T3 sequence (Q63380 1-617): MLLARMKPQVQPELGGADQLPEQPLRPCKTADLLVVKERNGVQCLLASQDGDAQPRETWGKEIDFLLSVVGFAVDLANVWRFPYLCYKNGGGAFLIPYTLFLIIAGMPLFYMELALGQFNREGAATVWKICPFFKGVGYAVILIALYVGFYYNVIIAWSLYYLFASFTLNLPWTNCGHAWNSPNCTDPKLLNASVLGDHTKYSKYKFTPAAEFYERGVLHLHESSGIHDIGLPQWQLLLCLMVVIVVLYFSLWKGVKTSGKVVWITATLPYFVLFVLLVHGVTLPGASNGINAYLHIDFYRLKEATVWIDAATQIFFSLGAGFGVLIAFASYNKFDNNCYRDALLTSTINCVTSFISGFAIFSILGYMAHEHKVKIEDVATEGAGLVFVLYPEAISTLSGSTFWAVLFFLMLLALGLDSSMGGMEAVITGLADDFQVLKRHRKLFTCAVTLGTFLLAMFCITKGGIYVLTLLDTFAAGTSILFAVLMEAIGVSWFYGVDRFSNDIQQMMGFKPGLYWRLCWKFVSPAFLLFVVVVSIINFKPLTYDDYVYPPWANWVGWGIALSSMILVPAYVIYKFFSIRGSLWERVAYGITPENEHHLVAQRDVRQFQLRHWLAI
T4 sequence (Q01959 whole entry): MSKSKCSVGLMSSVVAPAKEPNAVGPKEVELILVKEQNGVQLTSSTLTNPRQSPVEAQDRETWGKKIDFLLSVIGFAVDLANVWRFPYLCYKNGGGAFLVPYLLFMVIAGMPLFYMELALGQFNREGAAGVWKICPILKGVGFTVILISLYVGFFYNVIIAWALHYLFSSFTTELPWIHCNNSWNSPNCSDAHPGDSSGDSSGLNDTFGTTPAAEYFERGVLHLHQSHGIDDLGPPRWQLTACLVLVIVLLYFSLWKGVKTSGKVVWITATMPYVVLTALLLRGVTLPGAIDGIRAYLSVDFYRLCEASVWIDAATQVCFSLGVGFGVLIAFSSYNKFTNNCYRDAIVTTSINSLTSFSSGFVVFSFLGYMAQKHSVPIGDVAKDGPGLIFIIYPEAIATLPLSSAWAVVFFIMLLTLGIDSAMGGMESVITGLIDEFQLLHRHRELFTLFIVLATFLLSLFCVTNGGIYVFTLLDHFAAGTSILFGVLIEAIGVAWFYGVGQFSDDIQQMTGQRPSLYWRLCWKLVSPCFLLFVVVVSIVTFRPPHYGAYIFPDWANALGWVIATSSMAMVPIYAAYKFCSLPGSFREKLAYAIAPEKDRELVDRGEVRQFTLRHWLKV
human norepinephrine reuptake transporter, sequence (P23975 whole entry): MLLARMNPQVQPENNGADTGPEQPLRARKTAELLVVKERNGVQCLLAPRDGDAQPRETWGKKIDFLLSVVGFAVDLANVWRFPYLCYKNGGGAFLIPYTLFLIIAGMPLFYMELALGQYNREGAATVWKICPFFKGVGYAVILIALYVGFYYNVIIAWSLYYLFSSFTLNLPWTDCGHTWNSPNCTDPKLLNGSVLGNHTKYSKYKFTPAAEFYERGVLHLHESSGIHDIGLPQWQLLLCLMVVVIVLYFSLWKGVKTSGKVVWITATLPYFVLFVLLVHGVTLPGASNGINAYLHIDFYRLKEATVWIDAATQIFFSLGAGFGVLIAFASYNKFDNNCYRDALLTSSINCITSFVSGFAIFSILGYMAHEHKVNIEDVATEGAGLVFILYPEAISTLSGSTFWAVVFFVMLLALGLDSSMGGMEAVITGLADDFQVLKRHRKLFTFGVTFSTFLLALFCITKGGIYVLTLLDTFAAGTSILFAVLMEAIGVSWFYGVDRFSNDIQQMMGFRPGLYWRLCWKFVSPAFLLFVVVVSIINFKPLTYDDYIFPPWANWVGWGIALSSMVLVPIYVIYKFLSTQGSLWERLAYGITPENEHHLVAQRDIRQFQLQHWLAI
T5 sequence (Q60857 whole entry): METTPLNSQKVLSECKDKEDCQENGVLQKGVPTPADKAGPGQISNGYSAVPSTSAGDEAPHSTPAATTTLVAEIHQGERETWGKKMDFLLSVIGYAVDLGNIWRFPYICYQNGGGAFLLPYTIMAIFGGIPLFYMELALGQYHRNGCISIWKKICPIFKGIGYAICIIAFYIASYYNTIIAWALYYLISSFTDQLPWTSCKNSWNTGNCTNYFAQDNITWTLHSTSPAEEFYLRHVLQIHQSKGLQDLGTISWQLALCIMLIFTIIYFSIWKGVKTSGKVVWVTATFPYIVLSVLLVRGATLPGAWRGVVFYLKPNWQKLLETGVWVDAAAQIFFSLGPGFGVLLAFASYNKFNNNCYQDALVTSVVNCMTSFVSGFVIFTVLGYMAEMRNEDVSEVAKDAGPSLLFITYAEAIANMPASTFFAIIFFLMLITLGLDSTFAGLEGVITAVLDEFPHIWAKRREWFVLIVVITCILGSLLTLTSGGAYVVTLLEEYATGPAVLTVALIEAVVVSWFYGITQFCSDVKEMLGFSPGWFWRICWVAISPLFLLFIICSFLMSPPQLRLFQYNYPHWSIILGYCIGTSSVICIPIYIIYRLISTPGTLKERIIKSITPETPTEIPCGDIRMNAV
human serotonin reuptake transporter, sequence (P31645 whole entry): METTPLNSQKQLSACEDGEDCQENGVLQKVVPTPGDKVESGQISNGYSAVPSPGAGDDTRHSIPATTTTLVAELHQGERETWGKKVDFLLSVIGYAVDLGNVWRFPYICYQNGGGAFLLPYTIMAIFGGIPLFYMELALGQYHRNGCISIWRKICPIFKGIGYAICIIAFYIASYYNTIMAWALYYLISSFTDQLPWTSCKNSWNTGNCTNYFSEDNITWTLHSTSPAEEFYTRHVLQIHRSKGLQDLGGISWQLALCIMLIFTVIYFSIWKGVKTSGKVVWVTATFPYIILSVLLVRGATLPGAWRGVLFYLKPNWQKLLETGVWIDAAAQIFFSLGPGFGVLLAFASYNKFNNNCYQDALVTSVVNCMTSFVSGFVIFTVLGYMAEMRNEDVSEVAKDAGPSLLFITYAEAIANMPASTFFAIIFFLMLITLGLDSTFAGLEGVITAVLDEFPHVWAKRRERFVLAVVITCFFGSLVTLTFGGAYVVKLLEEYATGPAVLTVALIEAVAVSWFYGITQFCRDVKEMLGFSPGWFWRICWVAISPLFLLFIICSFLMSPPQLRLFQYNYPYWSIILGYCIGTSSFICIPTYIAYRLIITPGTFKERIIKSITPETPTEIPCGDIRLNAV
T1 sequence (P31652 whole entry): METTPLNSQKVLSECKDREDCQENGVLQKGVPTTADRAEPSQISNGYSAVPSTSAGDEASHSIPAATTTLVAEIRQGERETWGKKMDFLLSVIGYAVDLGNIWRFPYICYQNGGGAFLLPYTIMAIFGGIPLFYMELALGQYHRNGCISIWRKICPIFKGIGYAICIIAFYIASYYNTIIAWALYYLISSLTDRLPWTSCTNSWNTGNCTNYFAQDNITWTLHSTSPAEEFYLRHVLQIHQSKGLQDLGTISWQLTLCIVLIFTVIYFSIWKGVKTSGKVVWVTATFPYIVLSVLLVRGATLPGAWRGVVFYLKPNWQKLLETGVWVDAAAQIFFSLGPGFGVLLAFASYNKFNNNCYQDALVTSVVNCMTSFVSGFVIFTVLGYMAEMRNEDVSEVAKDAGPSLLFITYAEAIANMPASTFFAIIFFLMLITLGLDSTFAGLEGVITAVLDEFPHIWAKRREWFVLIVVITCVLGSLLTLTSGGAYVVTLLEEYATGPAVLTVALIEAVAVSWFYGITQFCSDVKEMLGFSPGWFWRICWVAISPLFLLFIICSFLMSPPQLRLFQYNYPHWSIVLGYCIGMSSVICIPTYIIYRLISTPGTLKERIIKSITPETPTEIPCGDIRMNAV
Norepinephrine Transporter (NET) Sites in Mouse Brain, sequence (O55192 whole entry): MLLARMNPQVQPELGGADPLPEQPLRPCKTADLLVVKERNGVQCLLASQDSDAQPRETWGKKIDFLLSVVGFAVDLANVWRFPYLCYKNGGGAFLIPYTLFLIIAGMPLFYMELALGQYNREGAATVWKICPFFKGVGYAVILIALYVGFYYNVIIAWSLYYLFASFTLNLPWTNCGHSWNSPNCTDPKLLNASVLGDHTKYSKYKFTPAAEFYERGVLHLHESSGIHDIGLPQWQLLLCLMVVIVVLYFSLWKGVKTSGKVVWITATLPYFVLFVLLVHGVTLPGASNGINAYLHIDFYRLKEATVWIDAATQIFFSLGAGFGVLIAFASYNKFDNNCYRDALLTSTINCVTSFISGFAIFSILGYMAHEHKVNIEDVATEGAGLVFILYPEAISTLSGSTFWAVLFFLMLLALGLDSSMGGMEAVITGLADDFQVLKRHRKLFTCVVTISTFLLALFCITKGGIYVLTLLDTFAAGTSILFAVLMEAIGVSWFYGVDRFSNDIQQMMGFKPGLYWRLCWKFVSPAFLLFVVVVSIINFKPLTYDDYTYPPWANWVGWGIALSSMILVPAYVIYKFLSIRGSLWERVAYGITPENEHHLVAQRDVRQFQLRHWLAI

## CC(N(C)C)C1(c2ccc3ccccc3c2)CCCCC1 (single isomer, unassigned) [56 E2, N,N-dimethyl-1-(1-(naphthalen-2-yl)cyclohexyl)ethanamine]
Serotonin transporter; [8]
  IC50: 120 nM
Dopamine transporter; [9]
  IC50: 100 nM
[1]; Rat IC50 (nM) rNET
  IC50: 79 nM

## CNC[C@@]1(c2ccc3ccccc3c2)CCCC[C@H]1O (single isomer, unassigned) [147 E1]
Serotonin transporter; [10]
  IC50: 18 nM
Dopamine transporter; [11]
  IC50: 1200 nM
[1]; read-out: Rat IC50 (nM) rNET
  IC50: 370 nM

## CNC[C@]1(c2ccc3ccccc3c2)CCCC[C@@H]1O (single isomer, unassigned) [147 E2]
Serotonin transporter; [10]
  IC50: 1700 nM
Dopamine transporter; [11]
  IC50: 1500 nM
[1]; read-out: Rat IC50 (nM) rNET
  IC50: 1200 nM

## CNC[C@@]1(c2ccc3ccccc3c2)CCCC[C@@H]1O (single isomer, unassigned) [148 E2]
Serotonin transporter; [10]
  IC50: 330 nM
Dopamine transporter; [11]
  IC50: 680 nM
[1]; read-out: Rat IC50 (nM) rNET
  IC50: 4900 nM

## NCC1(c2cccc3ccccc23)CCCCC1 [Compound 12, (1-(naphthalen-1-yl)cyclohexyl)methanamine]
Serotonin transporter; [12]
  IC50: 1100 nM
Dopamine transporter; [13]
  IC50: 1900 nM

## NCC1(c2ccc(OC(F)(F)F)cc2)CCCCC1 [Compound 15, (1-(4-(trifluoromethoxy)phenyl)cyclohexyl)methanamine]
[2]; Human IC50 (nM) hSERT
  IC50: 1400 nM
[3]
  IC50: > 10000 nM
[4]
  IC50: > 10000 nM

## NCC1(c2ccc(F)c(F)c2)CCCCC1 [Compound 30, (1-(3,4-difluorophenyl)cyclohexyl)methanamine hydrochloride]
[2]; [14]
  IC50: 4520 nM
[3]
  IC50: 5870 nM
[4]
  IC50: > 10000 nM

## NCC1(c2ccccc2)CCCCC1 [Compound 31, (1-phenylcyclohexyl)methaneamine hydrochloride]
[2]; [14]
  IC50: > 10000 nM
[3]
  IC50: > 10000 nM
[4]
  IC50: > 10000 nM

## NCC1(c2ccc(Cl)cc2Cl)CCCCC1 [Compound 38, (1-(2,4-dichlorophenyl)cyclohexyl)methanamine]
[2]; Human IC50 (nM) hSERT
  IC50: 472 nM
[3]
  IC50: 9650 nM
[4]
  IC50: > 10000 nM

## CNCC1(c2ccccc2)CCCCC1 [Compound 80, N-methyl(1-phenylcyclohexyl)methanamine (hydrochloride)]
[2]; [14]
  IC50: 9170 nM
[3]
  IC50: > 10000 nM
[4]
  IC50: > 10000 nM

## CC1(O)CCC(CN)(c2ccc3ccccc3c2)CC1 (stereo not drawn) [Compound 209, 4-(aminomethyl)-1-methyl-4-(naphthalen-2-yl)cyclohexanol]
[2]; [14]
  IC50: 1160 nM
[3]
  IC50: 4760 nM
[4]
  IC50: > 10000 nM

## CC1(O)CCC(CN)(c2ccc(OC(F)(F)F)cc2)CC1 (stereo not drawn) [Compound 219, 4-(aminomethyl)-1-methyl-4-(4-(trifluoromethoxy)phenyl)-cyclohexanol]
[2]; [14]
  IC50: 269 nM
[3]
  IC50: > 10000 nM
[4]
  IC50: > 10000 nM

## CNCC1(c2ccc3c(c2)OCO3)CCC(O)CC1 (stereo not drawn) [Compound 237, 4-(benzo[d][1,3]dioxol-5-yl)-4-((methylamino)methyl)cyclohexanol]
[2]; [14]
  IC50: 7300 nM
[3]
  IC50: 9130 nM
[4]
  IC50: > 10000 nM

## CNCC1(c2ccc(OC(F)(F)F)cc2)CCC(O)CC1 (stereo not drawn) [Compound 249, 4-((methylamino)methyl)-4-(4-(trifluoromethoxy)phenyl)cyclohexanol]
[2]; [14]
  IC50: 405 nM
[3]
  IC50: > 10000 nM
[4]
  IC50: > 10000 nM

## COC1CCC(CN(C)C)(c2ccc(Cl)c(Cl)c2)CC1 (stereo not drawn) [Compound 256, 1-(1-(3,4-dichlorophenyl)-4-methoxycyclohexyl)-N,N-dimethylmethanamine]
Serotonin transporter; [12]
  IC50: 280 nM
[2]; [14]
  IC50: 69 nM
Dopamine transporter; [13]
  IC50: 990 nM
[3]
  IC50: 157 nM

## CN(C)CC1(c2ccc(Cl)c(Cl)c2)CCC(F)(F)CC1 [Compound 269, 1-(1-(3,4-dichlorophenyl)-4,4-difluorocyclohexyl)-N,N-dimethylmethanamine]
[2]; [14]
  IC50: 787 nM
[3]
  IC50: < 1 nM
[4]
  IC50: 36 nM

## CN(C)CC1(c2ccc(Cl)c(Cl)c2)CCC(C)(O)CC1 (stereo not drawn) [Compound 277, 4-(3,4-dichlorophenyl)-4-((dimethylamino)methyl)-1-methylcyclohexanol]
Serotonin transporter; [8]
  IC50: 42 nM
[2]; [14]
  IC50: 34 nM
Dopamine transporter; [9]
  IC50: 43 nM
[5]; 1 mg/kg
  % Transporter Occupancy, SERT: -6%
  Mean Specific Binding (dpm) ± S.E.M., SERT: 1508 ± 86 dpm
[5]; 3 mg/kg
  % Transporter Occupancy, SERT: -5%
  Mean Specific Binding (dpm) ± S.E.M., SERT: 1491 ± 75 dpm
[5]; 10 mg/kg
  % Transporter Occupancy, SERT: 0%
  Mean Specific Binding (dpm) ± S.E.M., SERT: 1416 ± 43 dpm
[5]; 30 mg/kg
  % Transporter Occupancy, SERT: 3%
  Mean Specific Binding (dpm) ± S.E.M., SERT: 1384 ± 101 dpm
[6]; 1 mg/kg
  % Transporter Occupancy, DAT: 17%
  Mean Specific Binding (dpm) ± S.E.M., DAT: 35827 ± 2302 dpm
[6]; 3 mg/kg
  % Transporter Occupancy, DAT: 21%
  Mean Specific Binding (dpm) ± S.E.M., DAT: 34136 ± 4104 dpm
[6]; 10 mg/kg
  % Transporter Occupancy, DAT: 23%
  Mean Specific Binding (dpm) ± S.E.M., DAT: 33230 ± 2807 dpm
[6]; 30 mg/kg
  % Transporter Occupancy, DAT: 26%
  Mean Specific Binding (dpm) ± S.E.M., DAT: 31743 ± 4406 dpm
mice; 3 mg/kg
  Mouse Locomotor Activity Total Distance Traveled ± S.E.M.: 418.8 ± 80.6
mice; 10 mg/kg
  Mouse Locomotor Activity Total Distance Traveled ± S.E.M.: 411.8 ± 87.8
mice; 30 mg/kg
  Mouse Locomotor Activity Total Distance Traveled ± S.E.M.: 327.7 ± 67.1
Rats; 3 mg/kg
  Rat Locomotor Activity Total Distance Traveled ± S.E.M.: 1406.2 ± 84.9
Rats; 10 mg/kg
  Rat Locomotor Activity Total Distance Traveled ± S.E.M.: 1861.4 ± 187.8
Rats; 30 mg/kg
  Rat Locomotor Activity Total Distance Traveled ± S.E.M.: 2612.4 ± 210.8
[7]; 1 mg/kg
  % Transporter Occupancy, NET: 6%
  Mean Specific Binding (dpm) ± S.E.M., NET: 950 ± 46 dpm
[7]; 3 mg/kg
  % Transporter Occupancy, NET: 18%
  Mean Specific Binding (dpm) ± S.E.M., NET: 824 ± 30 dpm
[7]; 10 mg/kg
  % Transporter Occupancy, NET: 47%
  Mean Specific Binding (dpm) ± S.E.M., NET: 533 ± 25 dpm
[7]; 30 mg/kg
  % Transporter Occupancy, NET: 71%
  Mean Specific Binding (dpm) ± S.E.M., NET: 294 ± 42 dpm
